Measured values taken from PubChem BioAssay (NCI).
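Growth conditions: 96-well plates. Treatment: test compound, 48 hours, 5 concentrations. Analysis: linear interpolation between bracketing concentrations; unreached endpoints set to highest concentration. GI50 marks 50% less growth. The concentration for full growth arrest is given as TGI.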

Tests used:
Experiment in all cases: NCI-60 cell line screen, 48 h
[1] = system: 786-0 renal
[2] = system: A498 renal
[3] = system: A549 NSCLC
[4] = system: ACHN renal
[5] = system: BT-549 breast
[6] = system: CAKI-1 renal
[7] = system: CCRF-CEM leukemia
[8] = system: COLO 205 colon
[9] = system: DU-145 prostate
[10] = system: EKVX NSCLC
[11] = system: HCC-2998 colon
[12] = system: HCT-116 colon
[13] = system: HCT-15 colon
[14] = system: HL-60(TB) leukemia
[15] = system: HOP-62 NSCLC
[16] = system: HOP-92 NSCLC
[17] = system: HS 578T breast
[18] = system: HT29 colon
[19] = system: IGROV1 ovarian
[20] = system: K-562 leukemia
[21] = system: KM12 colon
[22] = system: LOX IMVI melanoma
[23] = system: M14 melanoma
[24] = system: MALME-3M melanoma
[25] = system: MCF7 breast
[26] = system: MDA-MB-231 breast
[27] = system: MDA-MB-435
[28] = system: MOLT-4 leukemia
[29] = system: NCI-H226 lung
[30] = system: NCI-H23 lung
[31] = system: NCI-H460 lung
[32] = system: NCI-H522 lung
[33] = system: NCI/ADR-RES ovarian
[34] = system: OVCAR-3 ovarian
[35] = system: OVCAR-4 ovarian
[36] = system: OVCAR-5 ovarian
[37] = system: OVCAR-8 ovarian
[38] = system: PC-3 prostate
[39] = system: RPMI-8226 leukemia
[40] = system: RXF 393 renal
[41] = system: SF-268 CNS
[42] = system: SF-295 CNS
[43] = system: SF-539 CNS
[44] = system: SK-MEL-2 melanoma
[45] = system: SK-MEL-28 melanoma
[46] = system: SK-MEL-5 melanoma
[47] = system: SK-OV-3 ovarian
[48] = system: SN12C renal
[49] = system: SNB-19 CNS
[50] = system: SNB-75 CNS
[51] = system: SR leukemia
[52] = system: SW-620 colon
[53] = system: T-47D breast
[54] = system: TK-10 renal
[55] = system: U251 CNS
[56] = system: UACC-257 melanoma
[57] = system: UACC-62 melanoma
[58] = system: UO-31 renal

`CCC1CCCCN1C(=S)N/N=C(\C)c1ccccn1` (stereo not given) was tested. Which GI50 [1] did it give?
Its GI50 is 853 nM.

And the TGI [1]?
The TGI was 2390 nM.

And the GI50 [2]?
The GI50 was 136 nM.

What about the TGI [2] of the same compound?
The TGI was 1930 nM.

What about the GI50 [3] of the same compound?
The GI50 was 34.6 nM.

What about the TGI [3] of the same compound?
The TGI was 2940 nM.

And the GI50 [4]?
The GI50 was < 17.5 nM.

And the TGI [4]?
The TGI was 1670 nM.

What about the GI50 [5] of the same compound?
Its GI50 is 92 nM.

And the TGI [5]?
The TGI was 2720 nM.

What about the GI50 [6] of the same compound?
Its GI50 is 46.6 nM.

And the TGI [6]?
The TGI was 1830 nM.

And the GI50 [7]?
Its GI50 is 41.4 nM.

And the TGI [7]?
Its TGI is > 100000 nM.

What about the GI50 [8] of the same compound?
The GI50 was 22.7 nM.

What about the TGI [8] of the same compound?
The TGI was 379 nM.

What about the GI50 [9] of the same compound?
Its GI50 is 292 nM.

What about the TGI [9] of the same compound?
Its TGI is 3750 nM.

And the GI50 [10]?
The GI50 was 72.8 nM.

And the TGI [10]?
The TGI was 4800 nM.

And the GI50 [11]?
Its GI50 is 156 nM.

And the TGI [11]?
Its TGI is 2760 nM.

And the TGI [12]?
The TGI was 3490 nM.

And the GI50 [13]?
The GI50 was 26.9 nM.

What about the TGI [13] of the same compound?
Its TGI is 3300 nM.

And the GI50 [14]?
The GI50 was 42.9 nM.

And the TGI [14]?
Its TGI is 3910 nM.

And the GI50 [15]?
The GI50 was 50.4 nM.

And the TGI [15]?
The TGI was 1960 nM.

And the GI50 [16]?
Its GI50 is 175 nM.

What about the TGI [16] of the same compound?
Its TGI is 1850 nM.

What about the GI50 [17] of the same compound?
Its GI50 is 1060 nM.

What about the TGI [17] of the same compound?
Its TGI is 14500 nM.

And the GI50 [18]?
The GI50 was < 25.3 nM.

And the TGI [18]?
Its TGI is 4690 nM.

What about the GI50 [19] of the same compound?
The GI50 was < 30.4 nM.

What about the TGI [19] of the same compound?
Its TGI is 2440 nM.

And the GI50 [20]?
Its GI50 is 23.8 nM.

What about the TGI [20] of the same compound?
The TGI was > 100000 nM.

And the GI50 [21]?
Its GI50 is 73.2 nM.

And the TGI [21]?
Its TGI is 1520 nM.

What about the GI50 [22] of the same compound?
The GI50 was < 24.6 nM.

What about the TGI [22] of the same compound?
Its TGI is 3860 nM.

And the GI50 [23]?
Its GI50 is 35.8 nM.

What about the TGI [23] of the same compound?
Its TGI is 1960 nM.

And the GI50 [24]?
The GI50 was < 32.5 nM.

What about the TGI [24] of the same compound?
The TGI was 2030 nM.

And the GI50 [25]?
The GI50 was < 12.1 nM.

What about the TGI [25] of the same compound?
The TGI was 4200 nM.

And the GI50 [26]?
Its GI50 is 92.2 nM.

And the TGI [26]?
The TGI was 3690 nM.

And the GI50 [27]?
The GI50 was 127 nM.

What about the TGI [27] of the same compound?
The TGI was 1790 nM.

What about the GI50 [28] of the same compound?
The GI50 was 98.2 nM.

And the TGI [28]?
The TGI was > 20700 nM.

What about the GI50 [29] of the same compound?
Its GI50 is 561 nM.

And the TGI [29]?
The TGI was 2130 nM.

What about the GI50 [30] of the same compound?
Its GI50 is 36.5 nM.

And the TGI [30]?
The TGI was 5010 nM.

What about the GI50 [31] of the same compound?
Its GI50 is 47.9 nM.

And the TGI [31]?
Its TGI is 3170 nM.

What about the GI50 [32] of the same compound?
Its GI50 is 91.2 nM.

And the TGI [32]?
Its TGI is 1820 nM.

What about the GI50 [33] of the same compound?
The GI50 was 47.2 nM.

What about the TGI [33] of the same compound?
The TGI was 6260 nM.

What about the GI50 [34] of the same compound?
The GI50 was < 13.3 nM.

What about the TGI [34] of the same compound?
Its TGI is 1160 nM.

What about the GI50 [35] of the same compound?
Its GI50 is 36.4 nM.

What about the TGI [35] of the same compound?
Its TGI is 3570 nM.

And the GI50 [36]?
Its GI50 is 416 nM.

What about the TGI [36] of the same compound?
Its TGI is 4880 nM.

What about the GI50 [37] of the same compound?
The GI50 was < 25.5 nM.

What about the TGI [37] of the same compound?
The TGI was 2060 nM.

And the GI50 [38]?
Its GI50 is 19.5 nM.

What about the TGI [38] of the same compound?
The TGI was 2990 nM.

What about the GI50 [39] of the same compound?
The GI50 was 42.3 nM.

And the TGI [39]?
Its TGI is 1890 nM.

What about the GI50 [40] of the same compound?
Its GI50 is 488 nM.

What about the TGI [40] of the same compound?
The TGI was 1910 nM.

What about the GI50 [41] of the same compound?
The GI50 was 76.6 nM.

And the TGI [41]?
The TGI was 5620 nM.

What about the GI50 [42] of the same compound?
Its GI50 is 29.6 nM.

And the TGI [42]?
The TGI was 2810 nM.

And the GI50 [43]?
The GI50 was 171 nM.

And the TGI [43]?
Its TGI is 2450 nM.

What about the GI50 [44] of the same compound?
The GI50 was 73.3 nM.

And the TGI [44]?
Its TGI is 1650 nM.

What about the GI50 [45] of the same compound?
The GI50 was 561 nM.

And the TGI [45]?
The TGI was 4650 nM.

And the GI50 [46]?
The GI50 was 194 nM.

And the TGI [46]?
The TGI was 1590 nM.

And the GI50 [47]?
The GI50 was 304 nM.

What about the TGI [47] of the same compound?
Its TGI is 2460 nM.

And the GI50 [48]?
Its GI50 is 114 nM.

What about the TGI [48] of the same compound?
Its TGI is 3870 nM.

What about the GI50 [49] of the same compound?
Its GI50 is 154 nM.

What about the TGI [49] of the same compound?
The TGI was 4790 nM.

What about the GI50 [50] of the same compound?
Its GI50 is 479 nM.

What about the TGI [50] of the same compound?
Its TGI is 2120 nM.

And the GI50 [51]?
Its GI50 is 71.6 nM.

What about the TGI [51] of the same compound?
Its TGI is > 100000 nM.

And the GI50 [52]?
The GI50 was 46.3 nM.

What about the TGI [52] of the same compound?
Its TGI is 2760 nM.

What about the GI50 [53] of the same compound?
The GI50 was < 14.6 nM.

And the TGI [53]?
The TGI was 1630 nM.

And the GI50 [54]?
Its GI50 is 191 nM.

What about the TGI [54] of the same compound?
Its TGI is 2560 nM.

What about the GI50 [55] of the same compound?
The GI50 was < 17.2 nM.

And the TGI [55]?
Its TGI is 6160 nM.

What about the GI50 [56] of the same compound?
The GI50 was < 21.5 nM.

What about the TGI [56] of the same compound?
The TGI was 1680 nM.

What about the GI50 [57] of the same compound?
The GI50 was 123 nM.

And the TGI [57]?
The TGI was 1920 nM.

And the GI50 [58]?
The GI50 was 134 nM.

What about the TGI [58] of the same compound?
Its TGI is 1820 nM.
